Laboratory results published in PubChem BioAssay (NCI).
“And” between values parts separate entries of the source, which are not always exact repeats. Equal values may be shown once.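 Five concentrations, 48 hours, 96-well plates. The concentration for 50% growth inhibition is given as GI50. TGI: concentration producing complete growth inhibition.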

Legend:
Experiment in all cases: NCI anticancer screen, dose series, 48 h
SNB-19 CNS = system: SNB-19 CNS
SR leukemia = system: SR leukemia
NCI-H23 lung = system: NCI-H23 lung
SK-MEL-28 melanoma = system: SK-MEL-28 melanoma
RPMI-8226 leukemia = system: RPMI-8226 leukemia
MALME-3M melanoma = system: MALME-3M melanoma
CAKI-1 renal = system: CAKI-1 renal
DU-145 prostate = system: DU-145 prostate
MCF7 breast = system: MCF7 breast
PC-3 prostate = system: PC-3 prostate

SMILES | TGI (SNB-19 CNS) | TGI (SR leukemia) [µM] | TGI (NCI-H23 lung) | TGI (SK-MEL-28 melanoma) | TGI (RPMI-8226 leukemia) | TGI (MALME-3M melanoma) | TGI (CAKI-1 renal) | GI50 (SNB-19 CNS) | GI50 (NCI-H23 lung) | GI50 (SK-MEL-28 melanoma) | GI50 (RPMI-8226 leukemia) | GI50 (MALME-3M melanoma) | GI50 (DU-145 prostate) | TGI (DU-145 prostate) | GI50 (MCF7 breast) | TGI (MCF7 breast) | GI50 (PC-3 prostate) | TGI (PC-3 prostate) | GI50 (CAKI-1 renal) | GI50 (SR leukemia) [µM]
O=c1[nH]c(C2CCCCC2)nc2ccc(Cl)cc12 | > 100 µM | > 100 | > 100 µM | > 100 µM | > 100 µM | > 100 µM | – | – | – | – | – | – | – | – | – | – | – | – | – | –
Cc1c2cc[n+](C)cc2c(C)c2c1[nH]c1ccc(OC(C)(C)C)cc12 | – | > 100 | > 100 µM | > 100 µM | > 100 µM | > 100 µM | > 100 µM | – | – | – | – | – | – | – | – | – | – | – | – | –
Nc1ncnc2c1ncn2Cc1ccc(CCl)cc1 | 37.8 µM | – | 37.6 µM | > 100 µM | > 100 µM | 43.4 µM | 28.9 µM | 16 µM | 17.5 µM | 21.7 µM | 15.1 µM | 19 µM | 19 µM | 50.7 µM | 11.7 µM | 62.7 µM | 20.8 µM | 73.1 µM | 14.3 µM | –
c1ccc2c(c1)CCCc1nnc3nc4ccccc4n3c1-2 | > 100 µM | 25.7 | > 100 µM | > 100 µM | 29.1 µM | – | > 100 µM | 7.5 µM | 7.31 µM | 9.43 µM | 2.96 µM | – | 4.91 µM | > 100 µM | 4.1 µM | > 100 µM | 7.87 µM | > 100 µM | 5.32 µM | 3.16
CCCCCCCN(CCCCCCC)C(=N)c1ccc(OC)c2ccccc12 | 2.93 µM | – | 2.53 µM | 3.17 µM | – | – | 2.83 µM | 1.38 µM | 1.1 µM | 1.62 µM | – | – | 1.38 µM | 2.76 µM | – | – | 1.35 µM | 2.78 µM | 1.43 µM | –
C/C=C1/CN2CCC34c5ccccc5N5C(=O)C(C6CC78c9ccccc9N9C(=O)C=CC(C%10CC7N6C/C%10=C/C)C98)=CC(C1CC23)C54 (stereo unspecified) | 15.2 µM and 30 µM | 50 | 13.1 µM and 15.5 µM | 11.3 µM and 22.7 µM | – | 14.5 µM | 21.2 µM and 26.8 µM | 14.8 µM | 3.94 µM | 10.1 µM | – | – | – | 23.4 µM | 2.9 µM | 8.15 µM and 12 µM | 2.45 µM | 9.38 µM | – | –
COc1ccc(C2[C@@H](Cl)C(=O)N2c2ccc(OC)cc2)cc1 (stereo partly specified) | > 100 µM | > 100 | > 100 µM | > 100 µM | > 100 µM | > 100 µM | > 100 µM | – | – | – | – | – | – | – | – | – | – | – | – | –
CNC(=O)c1cc(Oc2ccc(NC(=O)Nc3ccc(Cl)c(C(F)(F)F)c3)cc2)ccn1 | > 10 µM and 17.7 µM and 11.8 µM | – | 9.84 µM and 5.55 µM and 8.21 µM | 8.45 µM and 7.23 µM and 7.5 µM | 6.25 µM and 6.93 µM and 6.04 µM | > 10 µM and 6.71 µM and 11 µM | > 10 µM and 4.3 µM and 8.81 µM | 4.75 µM and 4.38 µM and 3.47 µM | 2.19 µM and 1.65 µM and 1.95 µM | 2.42 µM and 2.59 µM and 2.63 µM | 1.5 µM and 2.37 µM and 1.74 µM | 2.9 µM and 2.08 µM and 2.15 µM | 4.55 µM and 3.04 µM and 3.11 µM | > 10 µM and 9.33 µM and 10.7 µM | 2.62 µM and 2.41 µM and 2.82 µM | 9.82 µM and 7.38 µM and 10 µM | 2.2 µM and 2.6 µM and 2.14 µM | 8.51 µM and 8.9 µM and 8.57 µM | 3.21 µM and 2.01 µM and 2.91 µM | –
Oc1ccc(Cl)cc1N=Nc1c(O)ccc2ccccc12 | > 100 µM | > 100 | > 100 µM | > 100 µM | > 100 µM | 80.3 µM | > 100 µM | – | – | – | – | – | – | – | – | – | – | > 100 µM | – | –
COC(=O)/C(=C1\OC(=O)C(c2ccc(Cl)cc2)=C1O)c1ccc(Cl)cc1 | 94.5 µM | 80.9 | 40.3 µM | > 100 µM | 55.2 µM | 55.7 µM | 57.9 µM | – | – | – | – | – | – | – | – | – | – | – | – | –
CC1=NN(c2ccccc2)C(=O)C1N=Nc1ccc(Br)cc1C (stereo unspecified) | > 100 µM | – | > 100 µM | > 100 µM | > 100 µM | > 100 µM | > 100 µM | – | – | – | – | – | – | – | – | – | – | – | – | –
COC(=O)C1(N2CCOCC2)CCC([C@@H](c2ccccc2)C(C)[N+](=O)[O-])C1 (stereo partly specified) | > 100 µM | 60.4 | > 100 µM | > 100 µM | 42.9 µM | > 100 µM | – | – | – | – | – | – | – | 59.6 µM | – | 54.5 µM | – | > 100 µM | – | –
Cc1ccccc1C1SCc2nc3ccccc3n21 (stereo unspecified) | > 100 µM | – | > 100 µM | > 100 µM | > 100 µM | > 100 µM | > 100 µM | – | – | – | – | – | – | – | – | – | – | – | – | –
OCC1OC(NO)C(O)C(O)C1O (stereo unspecified) | > 100 µM | > 100 | > 100 µM | > 100 µM | > 100 µM | > 100 µM | > 100 µM | – | – | – | – | – | – | – | – | – | – | – | – | –
CC1O[C@@H]2CCCCC(=O)[C@]2(C)[C@H]1C (stereo partly specified) | > 100 µM | – | – | > 100 µM | > 100 µM | > 100 µM | > 100 µM | – | – | – | – | – | – | – | – | – | – | – | – | –
O=S1c2ccccc2N=C(c2cccs2)CC1c1ccccc1O (stereo unspecified) | > 100 µM | – | > 100 µM | > 100 µM | > 100 µM | > 100 µM | > 100 µM | – | – | – | – | – | – | – | – | – | – | – | – | –
O=C(O)[C@@H](Cc1ccccc1)NS(=O)(=O)c1ccc(-c2ccccc2)cc1 | > 100 µM | – | > 100 µM | > 100 µM | – | > 100 µM | > 100 µM | > 100 µM | > 100 µM | > 100 µM | – | > 100 µM | > 100 µM | > 100 µM | > 100 µM | > 100 µM | > 100 µM | > 100 µM | > 100 µM | –
CCn1c(C)nc([N+](=O)[O-])c1Sc1ncc[nH]1 | > 100 µM | > 100 | 99.6 µM | > 100 µM | > 100 µM | 93.8 µM | > 100 µM | – | – | – | – | – | – | – | – | – | – | – | – | –
O=S1(=O)CC#CC[C@@H](CO)[C@@H](CO)CC#CC1 | – | > 100 | > 100 µM | > 100 µM | – | 68.2 µM | – | – | – | – | – | – | – | – | – | – | – | – | – | –
Cc1ccc(O)c(C(=O)/C=C/c2ccccc2)c1 | > 100 µM | > 100 | > 100 µM | > 100 µM | > 100 µM | – | > 100 µM | – | – | – | – | – | – | > 100 µM | – | > 100 µM | – | > 100 µM | – | –
O=S(=O)(O)c1ccc([Se][Se]c2ccc(S(=O)(=O)O)cc2)cc1 | > 100 µM | 96.6 | > 100 µM | > 100 µM | > 100 µM | > 100 µM | > 100 µM | – | – | – | – | – | – | – | – | – | – | – | – | –
